Several values for one entry are separate records, joined by “and”; a condition that tells them apart may be missing. Equal values may be shown once. Activity calls are given as the source filed them.
Legend:
[1] = antileishmanial activity on axenic amastigotes – plate reader, cherry pick, dose response (AID 651891); assay type: functional, cell-based; details: Leishmania donovani
[2] = African trypanosome bloodstream form growth inhibition – STIB900 strain, plate reader, cherry pick, dose response (AID 651893); assay type: functional, cell-based, Trypanosoma brucei rhodesiense; details: Trypanosoma brucei
[3] = intracellular Trypanosoma cruzi inhibitors in host cells – cell-based, plate reader, cherry-pick samples, set 3, dose response (AID 651818); assay type: functional;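 note: compounds incubated with infected cells for about four days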
[4] = Inhibition of Plasmodium falciparum NF54 Measured in Cell-Based System Using Plate Reader - 2138-11_Inhibitor_Dose_CherryPick_Activity.; assay type: functional
[5] = L6 myocyte viability loss – cell-based, plate reader, cherry-pick, cytotoxicity control, dose response (AID 651896); assay type: functional
[6] = Inhibition of T. cruzi Tulahuen strain amastigotes in L-6 muscle cells Measured in Cell-Based and Microorganism Combination System Using Plate Reader - 2138-03_Inhibitor_Dose_CherryPick_Activity.; assay type: functional; details: Rattus norvegicus, L6
[7] = molecular target: Long-chain-fatty-acid--AMP ligase FadD28 (Mycobacterium tuberculosis, UniProt P9WQ59); assay: Fluorescence polarization aasay to screen for inhibitors that compete for the binding of FadD28 to a bisubstrate Measured in Biochemical System Using Plate Reader - 2147-01_Inhibitor_Dose_CherryPick_Activity.; assay type: functional, Mycobacterium tuberculosis H37Rv
Long-chain-fatty-acid--AMP ligase FadD28, sequence (P9WQ59 whole entry): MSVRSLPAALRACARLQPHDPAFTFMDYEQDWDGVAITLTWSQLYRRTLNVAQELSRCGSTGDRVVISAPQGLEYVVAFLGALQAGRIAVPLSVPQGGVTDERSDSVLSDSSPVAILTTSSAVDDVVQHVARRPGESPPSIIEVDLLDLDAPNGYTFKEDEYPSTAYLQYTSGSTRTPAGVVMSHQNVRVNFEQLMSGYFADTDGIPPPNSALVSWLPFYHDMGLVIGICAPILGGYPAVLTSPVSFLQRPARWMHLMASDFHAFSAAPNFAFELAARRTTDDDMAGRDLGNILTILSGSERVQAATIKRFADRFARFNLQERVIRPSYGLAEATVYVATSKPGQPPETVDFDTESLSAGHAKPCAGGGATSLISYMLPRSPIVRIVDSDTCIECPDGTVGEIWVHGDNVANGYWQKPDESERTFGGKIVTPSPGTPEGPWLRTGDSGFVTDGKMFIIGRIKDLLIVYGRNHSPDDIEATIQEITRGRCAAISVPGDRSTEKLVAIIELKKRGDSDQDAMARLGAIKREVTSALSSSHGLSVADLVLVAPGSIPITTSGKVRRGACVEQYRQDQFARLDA

[8] = OVCAR-3 cell viability loss – plate reader, dry powder samples, PAX8 inhibitor project, dose response (AID 743044); assay type: functional, cell-based
[9] = molecular target: Paired box protein Pax-8 (Homo sapiens, UniProt Q06710); assay: PAX8 transcriptional activity inhibition in RMG-I – RMG-I cells, luciferase, cherry-pick, dose response (AID 687027); assay type: functional, cell-based;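 note: luciferase reporter driven by Pax8 target thyroperoxidase promoter measured by SteadyGlo luminescence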
Paired box protein Pax-8, sequence (Q06710 whole entry): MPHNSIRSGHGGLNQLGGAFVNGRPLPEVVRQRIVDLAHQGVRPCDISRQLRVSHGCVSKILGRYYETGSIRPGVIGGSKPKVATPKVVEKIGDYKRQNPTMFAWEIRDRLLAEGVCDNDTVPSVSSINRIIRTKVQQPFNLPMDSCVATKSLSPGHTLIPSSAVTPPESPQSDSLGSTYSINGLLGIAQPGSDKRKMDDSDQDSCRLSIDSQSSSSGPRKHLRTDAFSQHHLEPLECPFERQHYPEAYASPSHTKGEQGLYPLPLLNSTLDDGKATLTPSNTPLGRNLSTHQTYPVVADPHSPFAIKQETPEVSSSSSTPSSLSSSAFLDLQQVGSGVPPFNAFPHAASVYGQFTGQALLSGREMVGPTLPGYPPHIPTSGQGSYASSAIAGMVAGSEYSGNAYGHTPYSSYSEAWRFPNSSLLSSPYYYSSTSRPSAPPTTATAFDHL

[10] = A2780 cell killing – plate reader, dry powder samples, cytotoxicity control, dose response (AID 743046); assay type: functional, cell-based
[11] = OVCAR8 cell viability loss – plate reader, dry powder samples, PAX8 project, dose response (AID 743197); assay type: functional, cell-based; details: OVCAR-8
[12] = toxicity toward immortalized ovarian surface epithelium – cell-based, plate reader, dry powder samples, cytotoxicity control for PAX8 inhibitor project, dose response (AID 743045); assay type: functional
[13] = activation of miR-122 Renilla sensor silencing – cell-based, Huh7 psiCHECK-miR122, Renilla luciferase, cherry-picked, dose response (AID 651956); assay type: functional;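 note: huh7 hepatoma cells stably carrying a psiCHECK-2 miR-122 sensor plasmid; renilla luciferase signal reporting endogenous miR-122 activity after 48 h compound exposure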
[14] = system: INS1; assay: INS-1E survival protection against cytokine death – cell-based, luminescence, retest, dose response (AID 449756); assay type: functional; details: Rattus norvegicus;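 note: cell death triggered by IL-1 beta plus TNF-alpha plus IFN-gamma mixture; protective hits raise ATP signal compared with cytokine alone wells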
[15] = Luminescence Cell-Based Dose Retest to Confirm Inhibitors of Cancer Stem Cells. [Related pubchem assays (depositor defined):AID2717, AID2721]; assay type: functional; details: Homo sapiens
[16] = viability loss in HEK293T cells – cell-based, cherry-picks, cytotoxicity control for HIV Vif inhibitor project, dose response (AID 652208); assay type: functional
[17] = general mammalian cell viability loss – activator set, cherry-pick, cytotoxicity control for miR-122 modulator project, dose response (AID 720690); assay type: functional, cell-based;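 note: HEK293T human cells scored for general mammalian cytotoxicity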
[18] = CMV-driven luciferase expression suppression in HEK293 – cell-based, luminescence, dry powder, counter-screen for Pax8 inhibitor project, dose response (AID 743020); assay type: functional
[19] = IGROV1 cell killing – plate reader, dry powder samples, PAX8 inhibitor project, dose response (AID 743043); assay type: functional, cell-based; details: IGROV-1
[20] = general cell-killing toxicity readout – plate reader, dry powder samples, cytotoxicity control for PAX8 inhibitor project, dose response (AID 743021); assay type: functional, cell-based
[21] = blockers of HIV-1 envelope-mediated cell-cell fusion – cherry-pick, dose response (AID 652057); assay type: functional, cell-based
[22] = blockers of HIV-1 ZM109 envelope-driven cell-cell fusion – HeLa effector, CEM target cells, luciferase, cherry-pick, dose response (AID 652058); assay type: functional, cell-based;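 note: luciferase signal from HIV-1 Env mediated cell-cell fusion of effector and target cells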
[23] = inhibition of Env-driven cell fusion – HIV entry, plate reader, dry powder, dose response (AID 687023); assay type: functional, cell-based
[24] = HIV-1 AD8 envelope cell-cell fusion blockers – cherry-pick, dose response (AID 652062); assay type: functional, cell-based;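 note: luciferase signal from cell-cell fusion driven by HIV-1 clade B AD8 Env; potency is for inhibitors of fusion seen as a drop in luminescence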
[25] = molecular target: T1, Microphthalmia-associated transcription factor (Homo sapiens, UniProt O75030); assay: reducers of TRPM1 reporter luminescence, concentration series – cell-based, SK-MEL-5, cherry-picked, set 3, MITF inhibitor project, dose response (AID 493073); assay type: functional;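 note: SK-MEL-5 melanoma cells with luciferase driven by the MITF target TRPM1 promoter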
T1 sequence (O75030 whole entry): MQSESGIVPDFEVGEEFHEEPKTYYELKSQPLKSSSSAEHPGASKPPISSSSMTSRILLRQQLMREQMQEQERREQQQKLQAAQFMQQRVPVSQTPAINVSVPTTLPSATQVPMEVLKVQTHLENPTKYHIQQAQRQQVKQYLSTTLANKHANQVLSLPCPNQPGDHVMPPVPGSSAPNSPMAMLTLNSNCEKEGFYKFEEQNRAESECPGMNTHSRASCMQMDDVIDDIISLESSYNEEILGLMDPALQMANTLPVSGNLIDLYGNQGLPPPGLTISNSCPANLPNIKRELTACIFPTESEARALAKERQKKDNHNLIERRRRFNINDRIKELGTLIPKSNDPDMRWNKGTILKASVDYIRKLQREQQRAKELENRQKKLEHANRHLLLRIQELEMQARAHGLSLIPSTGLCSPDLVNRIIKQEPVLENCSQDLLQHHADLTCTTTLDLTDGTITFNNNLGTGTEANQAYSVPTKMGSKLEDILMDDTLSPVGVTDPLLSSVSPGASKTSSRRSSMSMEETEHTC

[26] = off-target signal loss in HeLa-CEM21 co-culture – HeLa F-luc CTL cells, cherry-picked, counter-screen for HIV-1 Env fusion inhibitor project, dose response (AID 652040); assay type: functional, cell-based;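 note: potency for signal decrease marking cytotoxic or nonspecific inhibition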
[27] = viability loss in CEM21 cells – cell-based, plate reader, dry powder, cytotoxicity control, dose response (AID 687026); assay type: functional
[28] = luciferase signal loss, tTA control fusion, HeLa F-luc tTA cells, dry powder, counter-screen for HIV Env fusion inhibitor project, dose response (AID 687021); assay type: functional, cell-based
[29] = inhibitors of non-replicating M. tuberculosis, dose response, luciferase, dry powder (AID 651619); assay type: functional; details: Mycobacterium tuberculosis
[30] = inhibitors of non-replicating M. tuberculosis, dose response, luciferase, dry powder (AID 651620); assay type: functional; details: Mycobacterium tuberculosis
[31] = reduced cellular PGC1a acetyl-lysine signal – cell-based, cherry-picked samples, dose response (AID 720514); assay type: functional;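 note: potency may reflect raised or lowered acetylation signal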
[32] = molecular target: Kallikrein-7 (Homo sapiens, UniProt P49862); assay: Fluorescence Intensity-based biochemical primary high throughput dose response assay to identify activators of kallikrein-7 (K7) zymogen.
Kallikrein-7, sequence (P49862 whole entry): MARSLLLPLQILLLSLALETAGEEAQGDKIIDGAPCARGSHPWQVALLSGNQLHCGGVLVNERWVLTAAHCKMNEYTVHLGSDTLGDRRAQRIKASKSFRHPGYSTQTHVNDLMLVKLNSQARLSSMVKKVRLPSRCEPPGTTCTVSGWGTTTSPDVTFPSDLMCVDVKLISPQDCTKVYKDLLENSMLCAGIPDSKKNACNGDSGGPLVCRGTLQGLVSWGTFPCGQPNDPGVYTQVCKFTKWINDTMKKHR

[33] = molecular target: Mu-type opioid receptor (Homo sapiens, UniProt P35372); assay type: functional, cell-based;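 note: U2OS cells with beta-arrestin recruitment to OPRM1 by beta-gal complementation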
Mu-type opioid receptor, sequence (P35372 whole entry): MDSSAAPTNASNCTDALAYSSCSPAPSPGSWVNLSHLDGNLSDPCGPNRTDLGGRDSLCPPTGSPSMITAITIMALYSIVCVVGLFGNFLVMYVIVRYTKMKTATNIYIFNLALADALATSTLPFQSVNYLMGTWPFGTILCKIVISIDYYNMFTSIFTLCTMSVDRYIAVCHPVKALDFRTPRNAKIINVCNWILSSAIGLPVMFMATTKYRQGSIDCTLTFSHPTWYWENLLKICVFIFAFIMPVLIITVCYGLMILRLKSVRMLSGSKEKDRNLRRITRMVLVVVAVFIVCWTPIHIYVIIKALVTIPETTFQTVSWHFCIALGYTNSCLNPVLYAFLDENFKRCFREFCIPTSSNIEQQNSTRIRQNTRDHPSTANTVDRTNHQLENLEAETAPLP

[34] = molecular target: 5-hydroxytryptamine receptor 2A (Mus musculus, UniProt P35363); assay type: functional, cell-based;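 note: CHO-K1 cells with tagged receptor and beta-arrestin; agonist potency measured as compound-induced activation of the receptor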
5-hydroxytryptamine receptor 2A, sequence (P35363 whole entry): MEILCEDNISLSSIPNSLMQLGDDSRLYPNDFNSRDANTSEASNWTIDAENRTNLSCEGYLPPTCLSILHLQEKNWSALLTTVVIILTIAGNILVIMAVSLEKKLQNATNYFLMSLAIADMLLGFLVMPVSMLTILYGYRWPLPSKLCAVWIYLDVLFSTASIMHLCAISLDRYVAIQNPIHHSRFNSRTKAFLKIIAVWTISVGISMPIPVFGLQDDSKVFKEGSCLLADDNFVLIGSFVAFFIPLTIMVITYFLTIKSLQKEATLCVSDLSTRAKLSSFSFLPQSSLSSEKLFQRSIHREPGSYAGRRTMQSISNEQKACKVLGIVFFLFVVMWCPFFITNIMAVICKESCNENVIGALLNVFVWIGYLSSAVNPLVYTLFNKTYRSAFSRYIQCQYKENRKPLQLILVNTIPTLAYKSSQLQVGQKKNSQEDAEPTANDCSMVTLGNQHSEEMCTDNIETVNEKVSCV

COc1ccc(CN(C)C[C@H]2Oc3c(NC(=O)c4ccncc4)cccc3C(=O)N([C@H](C)CO)C[C@@H]2C)cc1
IC50 [1]: > 100 µM (inactive) | IC50 [2]: 20.2 µM (inactive) | AC50 [3]: 0.206 µM (active) | IC50 [4]: 7.39 µM (inactive) | IC50 [5]: > 100 µM (inactive) | IC50 [6]: 7.39 µM (inactive)

O=C(CN1C(=O)NC2(CCOc3ccccc32)C1=O)c1ccc(Cl)cc1 (stereo not drawn)
AC50 [7]: 47.9 µM (active)

C[C@H]1CCCCO[C@H](CN(C)C(=O)Nc2ccc(C(F)(F)F)cc2)[C@@H](C)CN([C@@H](C)CO)C(=O)c2cc(NC(=O)Nc3ccc(F)cc3)ccc2O1
AC50 [8]: 11.2 µM (active) | AC50 [9]: 3.62 µM (active) | AC50 [10]: 52.4 µM (active) | AC50 [11]: 23.7 µM (active) | AC50 [12]: 50.8 µM (active)

COc1ccc(-c2cc(-c3nc4ccccn4c3NCc3ccccc3)ccc2OC)cc1
AC50 [13]: 8.74 µM (active) | AC50 [14]: 1.33 µM (active) | AC50 [15]: 5.24 µM (active) | AC50 [16]: 1.69 µM (active) | AC50 [17]: 3.12 µM (active)

C[C@@H]1CN([C@H](C)CO)C(=O)c2cc(NS(=O)(=O)c3ccccc3)ccc2O[C@@H](C)CCCCO[C@@H]1CN(C)Cc1ccc(C(F)(F)F)cc1
AC50 [18]: 65.4 µM (active) | AC50 [8]: 27.4 µM (active) | AC50 [19]: 35.4 µM (active) | AC50 [9]: 5.74 µM (active) | AC50 [20]: 49 µM (active) | AC50 [10]: 34.8 µM (active) | AC50 [11]: 39 µM (active)

Oc1ccc(CNc2ccccc2F)c2cccnc12
AC50 [21]: 5.19 µM (active) | AC50 [22]: 1.58 µM (active) | AC50 [23]: > 70 µM (inactive) | AC50 [24]: 9.33 µM (active) | AC50 [25]: 15.1 µM (active) | AC50 [26]: 36 µM (active) | AC50 [27]: 50.8 µM (active) and 64.1 µM (active) | AC50 [28]: > 70 µM (inactive)

c1ccc(Cn2cc(CSc3nnc(-c4ccccc4)o3)nn2)cc1
IC90 [29]: 2 µM (active) | IC90 [30]: 2 µM (active)

Cc1cc(-c2ccc(Cl)cc2)n2ncnc2n1
AC50 [31]: 29.8 µM (active)

COc1ccc2ccccc2c1C=NNC(=O)c1cc(-c2ccc(C)c(C)c2)[nH]n1
EC50 [32]: > 2.57 µM (active)

FC(F)(F)c1cccc(CN2CCN(c3ncccn3)CC2)c1
EC50 [33]: 92.4 µM (inactive) | EC50 [34]: 4.16 µM (active)
